20 molecules from patent publication US20250034136A1 (Nimbus Wadjet, Inc., priority 2023, published 2025) can be followed below.

The target of experiment [1] is WRN (BV08), human Werner helicase (Uniprot Q14191, amino acids 517-1235 with L1074F point mutation) (Homo sapiens (Human), UniProt Q14191, L1074F). As to the kind of experiment: WRN (BV08) ADP-Glo assay. The class given is biochemical. To be noted: class symbols A-E, read-out: ADP-Glo_hWRN_IC50. (ADP-Glo turns the ADP formed in a reaction into a luminescent signal.)
WRN (BV08), human Werner helicase (Uniprot Q14191, amino acids 517-1235 with L1074F point mutation), sequence (Q14191 other isoform, or with tags, fused parts or gaps L1074F (already in the parent)): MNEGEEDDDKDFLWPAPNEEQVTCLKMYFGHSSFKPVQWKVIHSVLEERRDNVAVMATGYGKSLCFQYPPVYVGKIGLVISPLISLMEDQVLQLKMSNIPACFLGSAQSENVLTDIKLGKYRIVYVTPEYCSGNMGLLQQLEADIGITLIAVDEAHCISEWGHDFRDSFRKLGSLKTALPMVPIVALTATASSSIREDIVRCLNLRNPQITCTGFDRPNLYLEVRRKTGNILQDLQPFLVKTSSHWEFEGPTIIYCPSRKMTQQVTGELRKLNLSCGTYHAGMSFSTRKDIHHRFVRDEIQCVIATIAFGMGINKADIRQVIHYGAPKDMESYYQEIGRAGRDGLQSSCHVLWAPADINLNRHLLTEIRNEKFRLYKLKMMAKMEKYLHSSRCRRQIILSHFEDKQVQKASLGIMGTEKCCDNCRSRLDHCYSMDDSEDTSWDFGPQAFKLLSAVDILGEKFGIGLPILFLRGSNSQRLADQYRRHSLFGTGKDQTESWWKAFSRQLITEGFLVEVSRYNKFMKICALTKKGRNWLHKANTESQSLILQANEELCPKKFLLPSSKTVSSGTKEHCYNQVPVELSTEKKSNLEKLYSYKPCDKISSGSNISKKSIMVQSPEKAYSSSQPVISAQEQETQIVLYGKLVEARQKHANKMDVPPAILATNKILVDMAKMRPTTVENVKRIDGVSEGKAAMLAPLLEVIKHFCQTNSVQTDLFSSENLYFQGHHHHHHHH
Experiment [2] deals with p21 induction in HCT116 cells. As to the kind of experiment: p21 induction in HCT116 cells. The class given is cell-based. To be noted: Homo sapiens, HCT-116, 24 h, read-out: P21_EC50. A digest of the protocol:
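HCT116 cells, 2,000/well, treated 24 h at 37 °C with 11-point compound dilutions in duplicate. Fixed, then immunostained for p21 and GAPDH and read by near-IR imaging at 800/700 nm. Normalized to DMSO (low) and reference WRN inhibitor (high) controls; EC50 from non-linear regression.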

Setting [3] is: HCT116 cells, 24 h compound incubation.

Like-named read-outs stand apart in the source and are kept apart here.

`CCc1c(N2CCN(C(=O)c3c(O)ccnc3OC)CC2)c(=O)c2ncc(C)nc2n1CC(=O)Nc1ccc(C(F)(F)F)cc1Cl` [I-6, N-(2-chloro-4-(trifluoromethyl)phenyl)-2-(6-ethyl-7-(4-(4-hydroxy-2-methoxynicotinoyl)piperazin-1-yl)-3-methyl-8-oxopyrido[2,3-b]pyrazin-5(8H)-yl)acetamide]: in experiment [1], the IC50 fell in the range of 0.005 to 0.05 µM. The EC50 in experiment [2] (setting [3]) lay in the range of 2 to 5 µM.

On to `CCc1c(N2CCN(C(=O)c3ncnc(C)c3O)[C@H]3CC[C@@H]32)c(=O)c2nc3nc(C)sc3nc2n1CC(=O)Nc1ccc(C(F)(F)F)cc1Cl` [I-114, N-(2-chloro-4-(trifluoromethyl)phenyl)-2-(6-ethyl-7-((1S,6S)-5-(5-hydroxy-6-methylpyrimidine-4-carbonyl)-2,5-diazabicyclo[4.2.0]octan-2-yl)-2-methyl-8-oxopyrido[2,3-b]thiazolo[4,5-e]pyrazin-5(8H)-yl)acetamide], for which the IC50 in experiment [1] is 0.005 to 0.05 µM. For the same molecule, in experiment [2] (setting [3]), the EC50 is less than 0.5 µM.

In the case of `CCc1c(N2CCN(C(=O)c3ncnc(C)c3O)CC2)c(=O)c2nc(N3CCOCC3)cnc2n1CC(=O)Nc1ccc(C(F)(F)F)cc1Cl` [I-52, N-(2-chloro-4-(trifluoromethyl)phenyl)-2-(6-ethyl-7-(4-(5-hydroxy-6-methylpyrimidine-4-carbonyl)piperazin-1-yl)-2-morpholino-8-oxopyrido[2,3-b]pyrazin-5(8H)-yl)acetamide], the IC50 in experiment [1] was 0.005 to 0.05 µM. Also, the EC50 in experiment [2] (setting [3]) is more than 5 µM.

Take `CCc1c(N2CCN(C(=O)c3ncnc(C)c3O)[C@H]3CC[C@@H]32)c(=O)c2nc(-c3ccnn3C)cnc2n1CC(=O)Nc1ccc(C(F)(F)F)cc1Cl` [I-241, N-[2-chloro-4-(trifluoromethyl)phenyl]-2-{6-ethyl-7-[(1S,6S)-5-(5-hydroxy-6-methylpyrimidine-4-carbonyl)-2,5-diazabicyclo[4.2.0]octan-2-yl]-2-(1-methyl-1H-pyrazol-5-yl)-8-oxo-5H,8H-pyrido[2,3-b]pyrazin-5-yl}acetamide]: the IC50 in experiment [1] was not above 0.005 µM. In experiment [2] (setting [3]), the EC50 was less than 0.5 µM.

As to `CCc1c(N2CCN(C(=O)c3ncnc(C)c3O)CC2)c(=O)c2nc(N3CCC[C@H]3C)cnc2n1CC(=O)Nc1ccc(C(F)(F)F)cc1Cl` [I-150, N-[2-chloro-4-(trifluoromethyl)phenyl]-2-{6-ethyl-7-[4-(5-hydroxy-6-methylpyrimidine-4-carbonyl)piperazin-1-yl]-2-[(2R)-2-methylpyrrolidin-1-yl]-8-oxo-5H,8H-pyrido[2,3-b]pyrazin-5-yl}acetamide], the IC50 in experiment [1] lay in the range of 0.005 to 0.05 µM. The EC50 in experiment [2] (setting [3]) is 0.5 to 2 µM.

Turning to `CCc1c(N2C[C@H]3C[C@@H]2CN3C(=O)c2ncnc(C)c2O)c(=O)c2nc(N(C)C)cnc2n1CC(=O)Nc1ccc(C(F)(F)F)cc1Cl` (single isomer, unassigned) [I-256], the IC50 in experiment [1] was 0.1 to 0.5 µM. In experiment [2] (setting [3]), the EC50 was more than 5 µM.

For `CCc1c(N2CCN(C(=O)c3ncnc(C)c3O)CC2)c(=O)c2nc([C@H]3CC3(F)F)cnc2n1CC(=O)Nc1ccc(C(F)(F)F)cc1Cl` (single isomer, unassigned) [I-238], the IC50 in experiment [1] is 0.005 to 0.05 µM. In addition, in experiment [2] (setting [3]), the EC50 was more than 5 µM.

For `CCc1c(N2CCN(C(=O)c3ncnc(C)c3O)C[C@@H]2C)c(=O)c2nc(N3CCC3)cnc2n1CC(=O)Nc1ccc(S(F)(F)(F)(F)F)cc1Cl` [I-190, 2-[2-(azetidin-1-yl)-6-ethyl-7-[(2S)-4-(5-hydroxy-6-methylpyrimidine-4-carbonyl)-2-methylpiperazin-1-yl]-8-oxo-5H,8H-pyrido[2,3-b]pyrazin-5-yl]-N-[2-chloro-4-(pentafluoro-lambda6-sulfanyl)phenyl]acetamide], the IC50 in experiment [1] fell in the range of 0.005 to 0.05 µM. In experiment [2] (setting [3]), the EC50 is less than 0.5 µM.

As to `CCc1c(N2CCN(C(=O)c3ncnc(C)c3O)CC2)c(=O)c2nc(CCO)cnc2n1CC(=O)Nc1ccc(C(F)(F)F)cc1Cl` [I-41, N-(2-chloro-4-(trifluoromethyl)phenyl)-2-(6-ethyl-7-(4-(5-hydroxy-6-methylpyrimidine-4-carbonyl)piperazin-1-yl)-2-(2-hydroxyethyl)-8-oxopyrido[2,3-b]pyrazin-5(8H)-yl)acetamide], the IC50 in experiment [1] was in the range of 0.1 to 0.5 µM. The EC50 in experiment [2] (setting [3]) was more than 5 µM.

Take `CCc1c(N2CCN(C(=O)c3c(OC)ncc(C)c3O)C[C@@H]2C)c(=O)c2nc(N3CC[C@@H]4C[C@@H]43)cnc2n1CC(=O)Nc1ccc(C(F)(F)F)cc1Cl` (single isomer, unassigned) [I-232]: the IC50 in experiment [1] was 0.005 to 0.05 µM. The EC50 in experiment [2] (setting [3]) was less than 0.5 µM.

Turning to `CCc1c(N2CCN(C(=O)c3c(O)ccnc3OC)CC2)c(=O)c2nc(N(C)C)cnc2n1CC(=O)Nc1ccc(C(F)(F)F)cc1Cl` [I-51, N-(2-chloro-4-(trifluoromethyl)phenyl)-2-(2-(dimethylamino)-6-ethyl-7-(4-(4-hydroxy-2-methoxynicotinoyl)piperazin-1-yl)-8-oxopyrido[2,3-b]pyrazin-5(8H)-yl)acetamide], in experiment [1], the IC50 was 0.005 to 0.05 µM. Also, the EC50 in experiment [2] (setting [3]) is less than 0.5 µM.

Take `CCc1c(N2CCN(C(=O)c3c(OC)ncc(C)c3O)C[C@@H]2C)c(=O)c2nc(N3CC[C@H]4C[C@H]43)cnc2n1CC(=O)Nc1ccc(C(F)(F)F)cc1Cl` (single isomer, unassigned) [I-231]: in experiment [1], the IC50 was 0.005 to 0.05 µM. For the same molecule, the EC50 in experiment [2] (setting [3]) is less than 0.5 µM.

Regarding `CCc1c(N2CCN(C(=O)c3ncnc(C)c3O)CC2)c(=O)c2ncc(C)nc2n1CC(=O)Nc1ccc(C(F)(F)F)cc1Cl` [I-1, N-(2-chloro-4-(trifluoromethyl)phenyl)-2-(6-ethyl-7-(4-(5-hydroxy-6-methylpyrimidine-4-carbonyl)piperazin-1-yl)-3-methyl-8-oxopyrido[2,3-b]pyrazin-5(8H)-yl)acetamide], the IC50 in experiment [1] fell in the range of 0.005 to 0.05 µM. Besides, the EC50 in experiment [2] fell in the range of 2 to 5 µM.

As to `CCc1c(N2CCN(C(=O)c3ncnc(C)c3O)CC2)c(=O)c2nc(Br)cnc2n1CC(=O)Nc1ccc(C(F)(F)F)cc1Cl` [I-86, 2-(2-bromo-6-ethyl-7-(4-(5-hydroxy-6-methylpyrimidine-4-carbonyl)piperazin-1-yl)-8-oxopyrido[2,3-b]pyrazin-5(8H)-yl)-N-(2-chloro-4-(trifluoromethyl)phenyl)acetamide], in experiment [1], the IC50 was 0.005 to 0.05 µM. The EC50 in experiment [2] (setting [3]) lay within 2 to 5 µM.

Consider `CCc1c(N2CCN(C(=O)c3ncnc(C)c3O)CC2)c(=O)c2nc3nc(C)sc3nc2n1CC(=O)Nc1ccc(C(F)(F)F)cc1Cl` [I-95, N-(2-chloro-4-(trifluoromethyl)phenyl)-2-(6-ethyl-7-(4-(5-hydroxy-6-methylpyrimidine-4-carbonyl)piperazin-1-yl)-2-methyl-8-oxopyrido[2,3-b]thiazolo[4,5-e]pyrazin-5(8H)-yl)acetamide], for which, in experiment [1], the IC50 fell in the range of 0.005 to 0.05 µM. Further, the EC50 in experiment [2] was 0.5 to 2 µM.

As to `CCc1c(N2CCN(C(=O)c3cc(C)cnc3OC)[C@H]3CC[C@@H]32)c(=O)c2nc(N(C)C)cnc2n1CC(=O)Nc1ccc(C(F)(F)F)cc1Cl` [I-259, N-[2-chloro-4-(trifluoromethyl)phenyl]-2-[2-(dimethylamino)-6-ethyl-7-[(1S,6S)-5-(2-methoxy-5-methylpyridine-3-carbonyl)-2,5-diazabicyclo[4.2.0]octan-2-yl]-8-oxo-5H,8H-pyrido[2,3-b]pyrazin-5-yl]acetamide], the IC50 in experiment [1] was in the range of 0.005 to 0.05 µM. Moreover, the EC50 in experiment [2] (setting [3]) fell in the range of 0.5 to 2 µM.

For `CCc1c(N2CCN(C(=O)c3ncnc(C)c3O)[C@H]3CC(F)(F)C[C@@H]32)c(=O)c2nc(N(C)C)cnc2n1CC(=O)Nc1ccc(C(F)(F)F)cc1Cl` (single isomer, unassigned) [I-296, N-(2-chloro-4-(trifluoromethyl)phenyl)-2-(7-(6,6-difluoro-4-(5-hydroxy-6-methylpyrimidine-4-carbonyl)octahydro-1H-cyclopenta[b]pyrazin-1-yl)-2-(dimethylamino)-6-ethyl-8-oxopyrido[2,3-b]pyrazin-5(8H)-yl)acetamide], in experiment [1], the IC50 lay within 0.005 to 0.05 µM. Besides, the EC50 in experiment [2] (setting [3]) is 0.5 to 2 µM.

Take `CCc1c(N2CCN(C(=O)c3ncnc(C)c3O)CC2)c(=O)c2nc(-c3ccnn3C)cnc2n1CC(=O)Nc1ccc(C(F)(F)F)cc1Cl` [I-137, N-[2-chloro-4-(trifluoromethyl)phenyl]-2-{6-ethyl-7-[4-(5-hydroxy-6-methylpyrimidine-4-carbonyl)piperazin-1-yl]-2-(1-methyl-1H-pyrazol-5-yl)-8-oxo-5H,8H-pyrido[2,3-b]pyrazin-5-yl}acetamide]: the IC50 in experiment [1] is 0.005 to 0.05 µM. Further, in experiment [2] (setting [3]), the EC50 was more than 5 µM.

As for `CCc1c(N2CCN(C(=O)c3ncnc(C)c3O)[C@H]3CC[C@@H]32)c(=O)c2nc(N(C)C)c(C)nc2n1CC(=O)Nc1ccc(C(F)(F)F)cc1Cl` [I-107, N-(2-chloro-4-(trifluoromethyl)phenyl)-2-(2-(dimethylamino)-6-ethyl-7-((1S,6S)-5-(5-hydroxy-6-methylpyrimidine-4-carbonyl)-2,5-diazabicyclo[4.2.0]octan-2-yl)-3-methyl-8-oxopyrido[2,3-b]pyrazin-5(8H)-yl)acetamide], the IC50 in experiment [1] is not above 0.005 µM. In addition, in experiment [2] (setting [3]), the EC50 is less than 0.5 µM.

As to `CCc1c(N2CCN(C(=O)c3ncnc(C)c3O)CC2)c(=O)c2nc(-c3cnn(C)c3)cnc2n1CC(=O)Nc1ccc(C(F)(F)F)cc1Cl` [I-79, N-(2-chloro-4-(trifluoromethyl)phenyl)-2-(6-ethyl-7-(4-(5-hydroxy-6-methylpyrimidine-4-carbonyl)piperazin-1-yl)-2-(1-methyl-1H-pyrazol-4-yl)-8-oxopyrido[2,3-b]pyrazin-5(8H)-yl)acetamide], the IC50 in experiment [1] lay in the range of 0.005 to 0.05 µM. The EC50 in experiment [2] (setting [3]) is more than 5 µM.
